The source of these data is patent US11046680B1, “Heteroaryl-substituted triazoles as APJ receptor agonists” (priority 2016, dated 2021).

In this experiment the target is human APJ receptor (Homo sapiens (Human), UniProt P35414). The experiment in a line: biochemical. The format is biochemical. Particulars: [35S]GTPγS binding, CHO membranes expressing human APJ receptor; read-out: Activity hAPJ SPA EC50 IP. The essentials: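 Membranes of a stable CHO line carrying human APJ (pFLAG-CMV-3) were used in a GTPγS binding format; buffer GDP, MgCl2 and NaCl were optimized, and plates were read after 90 min at RT.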
Background: GTPγS is a poorly hydrolysed GTP analogue; its binding reports G protein activation.

Some results are limits rather than exact numbers.

human APJ receptor, sequence (P35414 whole entry): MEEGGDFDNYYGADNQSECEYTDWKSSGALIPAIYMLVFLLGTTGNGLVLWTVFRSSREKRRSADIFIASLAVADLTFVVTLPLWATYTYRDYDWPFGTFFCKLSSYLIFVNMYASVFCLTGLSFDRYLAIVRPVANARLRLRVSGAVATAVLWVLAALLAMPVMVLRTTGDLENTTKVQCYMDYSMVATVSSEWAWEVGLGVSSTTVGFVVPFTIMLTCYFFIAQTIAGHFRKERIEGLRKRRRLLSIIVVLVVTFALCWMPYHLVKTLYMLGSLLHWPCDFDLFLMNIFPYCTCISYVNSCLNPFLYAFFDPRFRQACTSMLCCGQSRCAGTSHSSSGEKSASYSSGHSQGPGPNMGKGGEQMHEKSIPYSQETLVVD

By EC50 is commonly meant the concentration that produces a half-maximal response. As for `COCC1(n2c(NS(=O)(=O)[C@@H](C)[C@H](OC)c3ncc(Cl)cn3)nnc2-c2nn(C)c3c2CCCC3)CC1` [Example 513.0, (1R,2S)-1-(5-chloropyrimidin-2-yl)-1-methoxy-N-(4-(1-(methoxymethyl)cyclopropyl)-5-(1-methyl-4,5,6,7-tetrahydro-1H-indazol-3-yl)-4H-1,2,4-triazol-3-yl)propane-2-sulfonamide], the EC50 turned out to be 3.1 nM. The result for `CCn1ccc(-c2nnc(NS(=O)(=O)[C@@H](C)[C@H](OC)c3ncc(F)cn3)n2-c2c(OC)cccc2OC)n1` [Example 134.0, (1R,2S)-N-(4-(2,6-Dimethoxyphenyl)-5-(1-ethyl-1H-pyrazol-3-yl)-4H-1,2,4-triazol-3-yl)-1-(5-fluoro-2-pyrimidinyl)-1-methoxy-2-propanesulfonamide] reads 1.2 nM; that for `COc1ncnc(OC)c1-n1c(NS(=O)(=O)[C@@H](C)[C@H](C)c2ccc(Cl)cn2)nnc1-c1ccn(C)n1` [Example 534.0, (2S,3R)-3-(5-chloro-2-pyridinyl)-N-(4-(4,6-dimethoxy-5-pyrimidinyl)-5-(1-methyl-1H-pyrazol-3-yl)-4H-1,2,4-triazol-3-yl)-2-butanesulfonamide], 0.93 nM. The result for `COc1cccc(OC)c1-n1c(NS(=O)(=O)[C@@H](C)Cc2ncc(C)cn2)nnc1-c1nc(C)cs1` (single isomer, unassigned) [Example 9.0, (2S)-N-(4-(2,6-dimethoxyphenyl)-5-(4-methyl-1,3-thiazol-2-yl)-4H-1,2,4-triazol-3-yl)-1-(5-methyl-2-pyrimidinyl)-2-propanesulfonamide or (2R)-N-(4-(2,6-dimethoxyphenyl)-5-(4-methyl-1,3-thiazol-2-yl)-4H-1,2,4-triazol-3-yl)-1-(5-methyl-2-pyrimidinyl)-2-propanesulfonamide] reads 11 nM. The figure for `COc1cccc(OC)c1-n1c(NS(=O)(=O)[C@@H](C)[C@H](OC)c2ccc(C#N)cc2C#N)nnc1-c1ccn(C)n1` (mixture of isomers) [Example 264.0, (1S,2R)-1-(2,4-dicyanophenyl)-N-(4-(2,6-dimethoxyphenyl)-5-(1-methyl-1H-pyrazol-3-yl)-4H-1,2,4-triazol-3-yl)-1-methoxy-2-propanesulfonamide and (1R,2S)-1-(2,4-dicyanophenyl)-N-(4-(2,6-dimethoxyphenyl)-5-(1-methyl-1H-pyrazol-3-yl)-4H-1,2,4-triazol-3-yl)-1-methoxy-2-propanesulfonamide] is 0.8 nM. For the compound `C=CCO[C@@H](c1ncc(F)cn1)[C@@H](C)S(=O)(=O)Nc1nnc(-c2nc(C)cs2)n1-c1c(OC)cccc1OC` (single isomer, unassigned) [Example 168.0, (1S,2R)-1-(Allyloxy)-N-(4-(2,6-dimethoxyphenyl)-5-(4-methylthiazol-2-yl)-4H-1,2,4-triazol-3-yl)-1-(5-fluoropyrimidin-2-yl)propane-2-sulfonamide or (1R,2S)-1-(allyloxy)-N-(4-(2,6-dimethoxyphenyl)-5-(4-methylthiazol-2-yl)-4H-1,2,4-triazol-3-yl)-1-(5-fluoropyrimidin-2-yl)propane-2-sulfonamide], the EC50 came out at 30 nM. The result for `COc1cccc(OC)c1-n1c(NS(=O)(=O)C[C@H](OC)c2ccc(Cl)cc2S(C)(=O)=O)nnc1-c1ccn(C)n1` (single isomer, unassigned) [Example 381.0, (R)-2-(4-Chloro-2-(methylsulfonyl)phenyl)-N-(4-(2,6-dimethoxyphenyl)-5-(1-methyl-1H-pyrazol-3-yl)-4H-1,2,4-triazol-3-yl)-2-methoxyethanesulfonamide or (S)-2-(4-chloro-2-(methylsulfonyl)phenyl)-N-(4-(2,6-dimethoxyphenyl)-5-(1-methyl-1H-pyrazol-3-yl)-4H-1,2,4-triazol-3-yl)-2-methoxyethanesulfonamide] reads 0.29 nM; that for `COc1cccc(OC)c1-n1c(NS(=O)(=O)CCC(=O)N2CCCC2)nnc1-c1cccs1` [Example 361.0, N-(4-(2,6-Dimethoxyphenyl)-5-(thiophen-2-yl)-4H-1,2,4-triazol-3-yl)-3-oxo-3-(pyrrolidin-1-yl)propane-1-sulfonamide], 34 nM. The figure for `COc1cccc(OC)c1-n1c(NS(=O)(=O)[C@H](C)[C@@H](C)c2ncc(C)cn2)nnc1-c1nc(C)cs1` (stereo in doubt) [Example 1.0, (2R,3 S)-N-(4-(2,6-dimethoxyphenyl)-5-(4-methylthiazol-2-yl)-4H-1,2,4-triazol-3-yl)-3-(5-methylpyrimidin-2-yl)butane-2-sulfonamide] is 0.13 nM. The figure for “(1R,2S)-N-(4-(2,6-dimethoxyphenyl)-5-(1H-pyrro1o[2,3-b]pyridin-3-yl)-4H-1,2,4-triazol-3-yl)-1-methoxy-1-(5-methylpyrimidin-2-yl)propane-2-sulfonamide [Example 413.0]” is 30 nM; for `COc1cccc(OC)c1-n1c(NS(=O)(=O)[C@@H](C)[C@H](OC)c2ncc(F)cn2)nnc1-c1cc(C)[nH]n1` [Example 345.0, (1R,2S)-N-(4-(2,6-dimethoxyphenyl)-5-(5-methyl-1H-pyrazol-3-yl)-4H-1,2,4-triazol-3-yl)-1-(5-fluoro-2-pyrimidinyl)-1-methoxy-2-propanesulfonamide] it is 8.1 nM; for `COc1cccc(OC)c1-n1c(NS(=O)(=O)[C@H](C)Cc2ncc(F)cn2)nnc1-c1ccncn1` (single isomer, unassigned) [Example 39.0, (R)-N-(4-(2,6-dimethoxyphenyl)-5-(pyrimidin-4-yl)-4H-1,2,4-triazol-3-yl)-1-(5-fluoropyrimidin-2-yl)propane-2-sulfonamide or (R)-N-(4-(2,6-dimethoxyphenyl)-5-(pyrimidin-4-yl)-4H-1,2,4-triazol-3-yl)-1-(5-fluoropyrimidin-2-yl)propane-2-sulfonamide] it is 230 nM. On to `COc1ccccc1-n1c(NS(=O)(=O)CCC(F)(F)F)nnc1-c1cccs1` [Example 386.0, 3,3,3-Trifluoro-N-(4-(2-methoxyphenyl)-5-(2-thiophenyl)-4H-1,2,4-triazol-3-yl)-1-propanesulfonamide], for which the EC50 was more than 12500 nM. The result for `COc1cccc(OC)c1-n1c(NS(=O)(=O)[C@@H](C)[C@H](OC)c2ncc(C)cn2)nnc1-c1ncnc2cc[nH]c12` [Example 435.0, (1R,2S)-N-(4-(2,6-dimethoxyphenyl)-5-(5H-pyrrolo[3,2-d]pyrimidin-4-yl)-4H-1,2,4-triazol-3-yl)-1-methoxy-1-(5-methylpyrimidin-2-yl)propane-2-sulfonamide] reads 180 nM; that for `CO[C@H](c1ncc(Cl)cn1)[C@H](C)S(=O)(=O)Nc1nnc(-c2noc3ccccc23)n1C(C)C` [Example 511.0, (1R,2S)-N-(5-(benzo[d]isoxazol-3-yl)-4-isopropyl-4H-1,2,4-triazol-3-yl)-1-(5-chloropyrimidin-2-yl)-1-methoxypropane-2-sulfonamide], 200 nM; that for `COc1cccc(OC)c1-n1c(NS(=O)(=O)C[C@H](O)c2ccc(F)cc2S(C)(=O)=O)nnc1-c1ccn(C)n1` (single isomer, unassigned) [Example 370.0, (R)-N-(4-(2,6-Dimethoxyphenyl)-5-(1-methyl-1H-pyrazol-3-yl)-4H-1,2,4-triazol-3-yl)-2-(4-fluoro-2-(methylsulfonyl)phenyl)-2-hydroxyethanesulfonamide or (S)-N-(4-(2,6-dimethoxyphenyl)-5-(1-methyl-1H-pyrazol-3-yl)-4H-1,2,4-triazol-3-yl)-2-(4-fluoro-2-(methylsulfonyl)phenyl)-2-hydroxyethanesulfonamide], 3.1 nM.

In the case of “(1R,2S)-N-(4-(2,6-dimethoxyphenyl)-5-(1-methyl-1H-pyrazol-3-yl)-4H-1,2,4-triazol-3-yl)-1-(5-fluoro-2-pyridinyl)-1-hydroxy-2-propanesulfonamide and (1S,2R)-N-(4-(2,6-dimethoxyphenyl)-5-(1-methyl-1H-pyrazol-3-yl)-4H-1,2,4-triazol-3-yl)-1-(5-fluoro-2-pyridinyl)-1-hydroxy-2-propanesulfonamide [Example 24.0]”, the EC50 is 0.18 nM. The figure for `CCc1nc(-c2nnc(NS(=O)(=O)CCc3ncc(F)cn3)n2-c2c(OC)cccc2OC)cs1` [Example 99.0, N-(4-(2,6-dimethoxyphenyl)-5-(2-ethylthiazol-4-yl)-4H-1,2,4-triazol-3-yl)-2-(5-fluoropyrimidin-2-yl)ethanesulfonamide] is 13 nM; for `COc1ncnc(OC)c1-n1c(NS(=O)(=O)[C@@H](C)[C@H](C)c2ncc(C)cn2)nnc1-c1n[nH]c2ccccc12` [Example 427.0, (2S,3R)-N-(4-(4,6-dimethoxypyrimidin-5-yl)-5-(1H-indazol-3-yl)-4H-1,2,4-triazol-3-yl)-3-(5-methylpyrimidin-2-yl)butane-2-sulfonamide] it is 21 nM; for `CO[C@H](c1ncc(C)cn1)[C@H](C)S(=O)(=O)Nc1nnc(-c2ccn(C)n2)n1-c1c(F)cccc1F` [Example 233.0, (1R,2S)-N-(4-(2,6-difluorophenyl)-5-(1-methyl-1H-pyrazol-3-yl)-4H-1,2,4-triazol-3-yl)-1-methoxy-1-(5-methyl-2-pyrimidinyl)-2-propanesulfonamide] it is 17 nM. The figure for `COc1cccc(OC)c1-n1c(NS(=O)(=O)CCc2ccc(Cl)cc2)nnc1-c1cncs1` [Example 137.0, 2-(4-chlorophenyl)-N-(4-(2,6-dimethoxyphenyl)-5-(thiazol-5-yl)-4H-1,2,4-triazol-3-yl)ethanesulfonamide] is 30 nM; for `COc1cnc([C@@H](C)[C@H](C)S(=O)(=O)Nc2nnc(-c3ccn(C)n3)n2-c2c(OC)cccc2OC)nc1` [Example 295.0, (2S,3R)-N-(4-(2,6-dimethoxyphenyl)-5-(1-methyl-1H-pyrazol-3-yl)-4H-1,2,4-triazol-3-yl)-3-(5-methoxy-2-pyrimidinyl)-2-butanesulfonamide] it is 0.4 nM.
